These compounds were tested on norovirus (assay: Anti-norovirus characteristics test (viral genome RNA by real-time PCR)). Conditions: comparative test results of Example 1.
Protocol: A frozen stock solution of a norovirus isolated from stools of a patient and cryopreserved at −80° C. was thawed on ice. A hundred microliters of the norovirus stock solution was diluted ten times with phosphate-buffered saline (PBS) and was spun in a refrigerated centrifuge at 10,000 rpm for 20 minutes to remove a precipitate. The resulting “norovirus test solution” (950 μL solution) was used in the following examples.
The “real-time PCR” in the following examples was performed in accordance with a document “Detection Method for Norovirus” attached to a notice (Notice No. 1105001 from the Inspection and Safety Division, dated Nov. 5, 2003. See http://www.mhlw.go.jp/topics/syokuchu/kanren/kanshi/031105-1.html) issued by the Director of the Inspection and Safety Division, Department of Food Safety, Pharmaceutical and Food Safety Bureau, Ministry of Health, Labour and Welfare.
The real-time PCR counts the number of viral genomes in the states of […] in FIG. 1. In the following examples, only elimination of (the RNA of) a norovirus illustrated in (c) is rated as “efficacious”, and the survival of (the RNA of) a norovirus illustrated in (b) is rated as “inefficacious” even if the infectivity and proliferative capacity of the norovirus are lost. Nevertheless, an anti-norovirus composition according to the present invention is rated as more efficacious than conventional compositions. Taking the state of a norovirus illustrated in (b) into account, an anti-norovirus composition according to the present invention should therefore have still higher practical efficacy.
Twenty-five microliters of the norovirus test solution and 25 μL of each of the compositions (A1 to A5 or B1 to B7) were sufficiently mixed. […] After the diluted solution was subjected to treatments, such as RNA extraction and cDNA synthesis, viral genome RNAs remaining in the diluted solution was counted by real-time PCR. […] These measured values for the sample solutions and the corresponding controls were compared to determine the inhibition rates of the compositions for the norovirus.

Row | Compound | efficacy for a norovirus (in words)
1 | O=C(O)c1cc(O)c(O)c(O)c1 [gallic acid] | no efficacy
2 | CCCOC(=O)c1cc(O)c(O)c(O)c1 [propyl gallate, gallic acid propyl ester] | no efficacy
3 | catechin | no efficacy

Source: patent publication US8790718B2, “Method of disinfection or infection control against norovirus” (Hiroshima University, priority 2007, dated 2014)
